Assay [1] deals with T1, human FLT3 protein (FLT3 (WT)) (Homo sapiens, UniProt P36888).
T1 construct: human FLT3 protein (intracellular region, 564 to 993 aa); GST; purchased Carna Biosciences; host or cells: baculovirus expression system
T1 sequence (P36888 564-993): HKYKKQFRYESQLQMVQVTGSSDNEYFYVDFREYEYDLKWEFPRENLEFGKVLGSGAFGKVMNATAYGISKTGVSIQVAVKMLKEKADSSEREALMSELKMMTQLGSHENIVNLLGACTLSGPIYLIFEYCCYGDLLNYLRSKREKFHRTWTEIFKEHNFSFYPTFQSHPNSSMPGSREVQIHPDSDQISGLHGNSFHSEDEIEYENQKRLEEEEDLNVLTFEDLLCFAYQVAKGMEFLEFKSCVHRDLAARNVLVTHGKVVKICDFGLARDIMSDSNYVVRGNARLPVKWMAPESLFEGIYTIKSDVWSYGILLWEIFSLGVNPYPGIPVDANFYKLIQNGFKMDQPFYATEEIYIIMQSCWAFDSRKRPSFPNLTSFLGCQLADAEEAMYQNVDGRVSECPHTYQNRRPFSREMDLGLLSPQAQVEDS
Kind of assay: FLT3 inhibition test (FLT3 enzyme inhibition, time-resolved fluorescence of substrate peptide phosphorylation). It is filed as biochemical. To be noted: read-out: FLT3 (WT) enzyme inhibition activity. The essentials:
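Substrate peptide phosphorylation detected by time-resolved fluorescence after a 30 min kinase reaction at 25° C with 50 μM ATP (final). Beforehand, compound and FLT3 (WT, 1.2 μg) stood 15 min at 25° C in HEPES buffer pH 7.5 containing MgCl2, NaCl, BSA and DTT.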

In the next assay the test system is MV4-11 cells. In words: Leukemia cell proliferation inhibition test (ATPlite), MV4-11. It counts as cell-based. Particulars: read-out: MV4-11 cell proliferation inhibition effect. The essentials: (§1)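 Luminescent ATP read-out (firefly luciferase) used as a total cell count after 72 h compound exposure at 37° C, 5% CO2. Cells: 10,000/well in RPMI + 10% FBS. GI50 = 50% inhibition relative to 0.1% DMSO, from a sigmoid dose-response fit; duplicates.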
(In ATP-based viability assays light output follows the ATP content of the culture.)

In the next assay the test system is Molm-13 cells. Kind of assay: Leukemia cell proliferation inhibition test (ATPlite), Molm-13. It counts as cell-based. To be noted: read-out: MOLM13 cell proliferation inhibition effect. The essentials:
as §1

Setting [2] is: GST-fused human FLT3 (564 to 993 aa), ATP 50 μM.
Where [3] appears, read: Homo sapiens, MV4-11, 72 h, MV4-11, 72 hours culture, ATPlite, GI50 per method.
[4] abbreviates: Homo sapiens, MOLM-13, 72 h, Molm-13, 72 hours culture, ATPlite, GI50 per method.
[5] abbreviates: Homo sapiens, MV4-11, MV4-11 cell.
The mark [6] stands for this setting: Homo sapiens, MOLM-13, MOLM13 cell.

Like-named read-outs stand apart in the source and are kept apart here.

On to `CNc1nc(Nc2ccc3[nH]ncc3c2)ncc1C#CCCCNC(=O)[C@@H]1CCCN1C(=O)/C=C/CN(C)C` [Compound 10-66, (S,E)-N-(5-(2-((1H-Indazol-5-yl)amino)-4-(methylamino)pyrimidin-5-yl)-4-pentyn-1-yl)-1-(4-(dimethylamino)-2-butenoyl)pyrrolidine-2-carboxamide], for which the IC50 (in assay [1] (setting [2]); with MV4-11 cells (setting [3]); in the assay with Molm-13 cells (setting [4])) was under 10 nM throughout.
With `C[C@@H](C(=O)N[C@H]1CCC[C@@H](C#Cc2cnc(Nc3ccc(C#N)cc3)nc2N2CCOCC2)C1)N(C)C(=O)/C=C/CN(C)C` [Compound 14-5], the IC50 (in assay [1] (setting [2]); in the assay with MV4-11 cells (setting [3]); with Molm-13 cells (setting [4])) was under 10 nM in each case.
As to `CNc1nc(Nc2cccc(C#N)c2)ncc1C#CCCCNC(=O)[C@@H]1C[C@H](F)CN1C(=O)/C=C/CN(C)C` [Compound 7-75], the IC50 (in assay [1] (setting [2]); in the assay on MV4-11 cells (setting [3]); in the assay on Molm-13 cells (setting [4])) was under 10 nM in each case.
Consider `CCCNc1nc(Nc2ccc(C(N)=O)cc2)ncc1C(=O)N[C@H]1CCC[C@H](Nc2ccccc2NC(=O)/C=C/CN(C)C)C1` [Compound 3-27], for which the IC50 is under 10 nM in assay [1] (setting [2]); 10 to 100 nM in the assay on MV4-11 cells (MV4-11, 72 hours culture, ATPlite, GI50 per method); 10 to 100 nM in the assay on Molm-13 cells (Molm-13, 72 hours culture, ATPlite, GI50 per method).
As for `CCCNc1nc(Nc2cnc3c(cnn3C)c2)ncc1C#CCCCNC(=O)[C@@H]1CCCN1C(=O)/C=C/CN(C)C` [Compound 22-43, (S,E)-1-(4-(Dimethylamino)-2-butenoyl)-N-(5-(2-((1-methyl-1H-pyrazolo[3,4-b]pyridin-5-yl)amino)-4-(propylamino)pyrimidin-5-yl)-4-pentyn-1-yl)pyrrolidine-2-carboxamide], the IC50 (in assay [1] (FLT3 (WT)); in the assay on MV4-11 cells (setting [5]); in the assay with Molm-13 cells (setting [6])) was under 10 nM throughout.
Consider `CCCNc1nc(Nc2cccc(F)c2)ncc1/C=C/c1cccc(NC(=O)[C@H](C)N(C)C(=O)/C=C/CN(C)C)c1` [Compound 7-27], for which the IC50 in assay [1] (setting [2]) is under 10 nM; in the assay on MV4-11 cells (setting [3]), 10 to 100 nM; in the assay with Molm-13 cells (setting [4]) it was under 10 nM.
As to `CCCNc1nc(Nc2ccc(C(N)=O)cc2)ncc1C(=O)NCCCNC(=O)[C@H](C)N(C)C(=O)/C=C/CN(C)C` [Compound 5-1, (S,E)-2-((4-carbamoylphenyl)amino)-N-(3-(2-(4-(dimethylamino)-N-methyl-2-butenamido)propaneamido)propyl)-4-(propylamino)pyrimidine-5-carboxamide], the IC50 (in assay [1] (setting [2]); in the assay with MV4-11 cells (setting [3]); in the assay with Molm-13 cells (setting [4])) was under 10 nM in each case.
Take `CCCNc1nc(Nc2ccc3c(cnn3CCOC)c2)ncc1C#CCCCNC(=O)[C@H](C)N(C)C(=O)/C=C/CN(C)C` [Compound 22-10]: the IC50 (in assay [1] (FLT3 (WT)); in the assay with MV4-11 cells (setting [5]); in the assay on Molm-13 cells (setting [6])) was under 10 nM in each case.
For the compound `C[C@@H](C(=O)NCCCC#Cc1cnc(Nc2ccc(C#N)cc2)nc1N1CCC(F)(F)CC1)N(C)C(=O)/C=C/CN(C)C` [Compound 10-43], the IC50 in assay [1] (setting [2]) is under 10 nM; with MV4-11 cells (setting [3]), 10 to 100 nM; in the assay on Molm-13 cells (setting [4]), 10 to 100 nM.
As for `CCNc1nc(Nc2ccc(C#N)cc2)ncc1C#CCCCNC(=O)[C@H](C)N(C)C(=O)/C=C/CN(C)C` [Compound 10-46], the IC50 (in assay [1] (setting [2]); in the assay with MV4-11 cells (setting [3]); in the assay with Molm-13 cells (setting [4])) was under 10 nM each time.
On to `C[C@@H](C(=O)NCCCC#Cc1cnc(Nc2cccc(C#N)c2)nc1N1CCOCC1)N(C)C(=O)/C=C/CN(C)C` [Compound 9-2], for which the IC50 was under 10 nM in assay [1] (setting [2]), 10 to 100 nM in the assay with MV4-11 cells (setting [3]) and 10 to 100 nM in the assay on Molm-13 cells (setting [4]).
In the case of `CCCNc1nc(Nc2cccc(F)c2)ncc1-c1nc2ccc(NC(=O)[C@H](C)N(C)C(=O)/C=C/CN(C)C)cc2o1` [Compound 6-23, (S,E)-4-(dimethylamino)-N-(1-((2-(2-((3-fluorophenyl)amino)-4-(propylamino)pyrimidin-5-yl)benzo[d]oxazol-6-yl)amino)-1-oxopropan-2-yl)-N-methyl-2-butenamide], the IC50 in assay [1] (setting [2]) is 10 to 100 nM; in the assay on MV4-11 cells (setting [3]), 100 to 1000 nM; with Molm-13 cells (setting [4]), 100 to 1000 nM.
Consider `CCCNc1nc(Nc2ccc(C(N)=O)cc2)ncc1C#Cc1cccc(NC(=O)[C@H](C)N(C)C(=O)/C=C/CN(C)C)c1` [Compound 8-2, (S,E)-4-((5-((3-(2-(4-(Dimethylamino)-N-methyl-2-butenamido)propanamido)phenyl)ethynyl)-4-(propylamino)pyrimidin-2-yl)amino)benzamide], for which the IC50 (in assay [1] (setting [2]); in the assay with MV4-11 cells (setting [3]); in the assay with Molm-13 cells (setting [4])) was under 10 nM in each case.
Take `CCCNc1nc(Nc2ccc(C#N)cc2)ncc1C#CCCCNC(=O)[C@@H]1CCCN1C(=O)/C=C/CN(C)C` [Compound 7-33, (S,E)-N-(5-(2-((4-Cyanophenyl)amino)-4-(propylamino)pyrimidin-5-yl)-4-pentyn-1-yl)-1-(4-(dimethylamino)-2-butenoyl)pyrrolidine-2-carboxamide]: the IC50 (in assay [1] (setting [2]); in the assay with MV4-11 cells (setting [3]); in the assay with Molm-13 cells (setting [4])) was under 10 nM throughout.
Regarding `C/C=C/C(=O)N(C)[C@@H](C)C(=O)Nc1cccc(NC(=O)c2cnc(Nc3ccc(C(N)=O)cc3)nc2NCCC)c1` [Compound 3-9], the IC50 in assay [1] (setting [2]) is under 10 nM; in the assay with MV4-11 cells (setting [3]), 10 to 100 nM; in the assay with Molm-13 cells (setting [4]), 10 to 100 nM.
Turning to `CCCN(C)c1nc(Nc2ccc(C(N)=O)cc2)ncc1C#CCCCNC(=O)[C@H](C)N(C)C(=O)/C=C/CN(C)C` [Compound 9-6], the IC50 (in assay [1] (setting [2]); in the assay on MV4-11 cells (setting [3]); with Molm-13 cells (setting [4])) was under 10 nM in each case.
Consider `C[C@@H](C(=O)NCCCC#Cc1cnc(Nc2ccc(C#N)cc2)nc1-c1ccccc1)N(C)C(=O)/C=C/CN(C)C` [Compound 20-1, (S,E)-N-(1-((5-(2-((4-cyanophenyl)amino)-4-phenylpyrimidin-5-yl)-4-pentyn-1-yl)amino)-1-oxopropan-2-yl)-4-(dimethylamino)-N-methyl-2-butenamide], for which the IC50 was 10 to 100 nM in assay [1] (setting [2]), under 10 nM in the assay on MV4-11 cells (setting [3]) and under 10 nM in the assay on Molm-13 cells (setting [4]).
As for `CCCNc1nc(NCCc2ccncc2)ncc1C(=O)NCCC(CC)NC(=O)CN(C)C(=O)/C=C/CN(C)C` (stereo not drawn) [Compound 1-12], the IC50 was under 10 nM in assay [1] (setting [2]), under 10 nM with MV4-11 cells (setting [3]) and 10 to 100 nM in the assay on Molm-13 cells (setting [4]).
Turning to `CNc1nc(Nc2cccc(F)c2)ncc1C#CCCCNC(=O)[C@@H]1C[C@H](F)CN1C(=O)/C=C/CN(C)C` [Compound 7-72, (2S,4S)-1-((E)-4-(Dimethylamino)-2-butenoyl)-4-fluoro-N-(5-(2-((3-fluorophenyl)amino)-4-(methylamino)pyrimidin-5-yl)-4-pentyn-1-yl)pyrrolidine-2-carboxamide], the IC50 (in assay [1] (setting [2]); in the assay on MV4-11 cells (setting [3]); in the assay with Molm-13 cells (setting [4])) was under 10 nM in each case.
As for `CNc1nc(Nc2ccc3c(F)nn(C)c3c2)ncc1C#CCCCNC(=O)[C@H](C)N(C)C(=O)/C=C/CN(C)C` [Compound 21-50], the IC50 (in assay [1] (FLT3 (WT)); in the assay on MV4-11 cells (setting [5]); with Molm-13 cells (setting [6])) was under 10 nM each time.
For `CCCNc1nc(Nc2ccc(C#N)cc2)ncc1C#CCCCNC(=O)CN(CC(C)C)C(=O)/C=C/CN(C)C` [Compound 7-65], the IC50 (in assay [1] (setting [2]); in the assay on MV4-11 cells (setting [3]); in the assay with Molm-13 cells (setting [4])) was under 10 nM each time.
Turning to `CCCNc1nc(Nc2cnc3ccc(OC)cc3c2)ncc1C#CCCCNC(=O)[C@H](C)N(C)C(=O)/C=C/CN(C)C` [Compound 21-16], the IC50 (in assay [1] (setting [2]); in the assay with MV4-11 cells (setting [3]); in the assay on Molm-13 cells (setting [4])) was under 10 nM throughout.
